Laboratory results reported in patent US8044075B2, “IL-8 receptor antagonists” (GlaxoSmithKline, priority 2006, dated 2011).

Tested on: GROα-induced expression of the integrin CD11b on neutrophils in human whole blood
Assay: CD11b human whole blood assay
Type: cell-based
Details: Neutrophil, 10 nM GROα, read-out: IC50, inhibition of GROα-induced CD11b expression
Method: The compounds indicated were tested for their ability to inhibit the GROα-induced expression of the integrin CD11b on neutrophils in human whole blood.
Blood was drawn (9 ml) using a butterfly line and a 10 ml syringe containing 0.2 ml of working Sodium Heparin. The blood was kept at 37° C. until placed on ice in step 5 below. Compound stock solutions were then diluted to 12 times the maximum final concentration, 120 uM. Half Log serial dilutions were then performed in vehicle. Ten microliters of the compound dilutions or vehicle were then added to the appropriate 12×75 polypropylene tubes. One hundred microliters of whole blood was added per tube and incubated for 10 minutes, in a 37° C. water bath with initial (gentle) agitation and again at 5 minutes. The GROα stock was diluted 1:166.66 in 0.1% BSA-DPBS to “12x” concentration of 120 nM and 10 ul of the GROα dilution or 0.1% BSA-DPBS was added to the appropriate tubes so that the final GROα concentration equaled 10 nM. The tubes were incubated for 10 min at 37° C. with gentle hand agitation and again at 5 minutes. Samples were then placed on ice and 250 ul of ice cold CellFix working dilution was added followed by a one minute incubation on ice. 1.5 ml Eppendorf tubes were readied during GROα incubation by adding the appropriate antibodies. Every tube received 10 ul of CD11b-FITC and 5 ul of CD 16-PE, except for the isotype control which received 10 ul of IgG2a-FITC instead of CD11b. Addition of 50 ul of the fixed blood from each tube was added to the appropriate Eppendorf tube. Samples were allowed to then incubate for 20 min at 4° C. in the dark. Addition of the blood/antibody mixtures to 500 ul of cold DPBS were added to the appropriately labeled 12×75 polystyrene tube. The resulting mixture was kept on ice. LDS stock (10 ul) was added and the mixture was incubated for 10 min at 4° C. before flow analysis. Samples were kept in a darkened environment. The LDS addition was staggered as the samples were collected on the flow cytometer so that all samples were run ˜10-20 minutes post-LDS addition. […]

Compound	IC50 [µM]
CC(C)(c1ccccc1)c1nnc(NC(=O)c2cc(S(N)(=O)=O)ccc2F)s1 [Example 61, 5-(aminosulfonyl)-2-fluoro-N-[5-(1-methyl-1-phenylethyl)-1,3,4-thiadiazol-2-yl]-benzamide]	< 5
CCNS(=O)(=O)c1ccc(F)c(C(=O)Nc2nnc(C(C)(C)C)s2)c1 [Example 28, N-[5-(1,1-dimcthylcthyl)-1,3,4-thiadiazol-2-yl]-5-[(ethylamino)sulfonyl]-2-fluorobenzamide]	< 5
CCNS(=O)(=O)c1ccc(F)c(C(=O)Nc2nnc(C3(c4ccccc4)CCCC3)s2)c1 [Example 52, 5-[(ethylamino)sulfonyl]-2-fluoro-N-[5-(1-phenylcyclopentyl)-1,3,4-thiadiazol-2-yl]benzamide]	< 5

Tested on: Primary human neutrophils
Assay: Neutrophil chemotaxis assay (IL-8 or GRO-α as chemoattractant)
Type: cell-based
Details: 0.75 h, IL-8 or GRO-α at EC80, 45 minutes, span over all compounds tested, units (nM, uM) given within the value, read-out: IC50 range of the compounds tested, neutrophil chemotaxis
Method: The in vitro inhibitory properties of these compounds were determined in a neutrophil chemotaxis assay. Primary human neutrophils were isolated from peripheral whole blood using percoll discontinuous gradient centrifugation, dextran sedimentation and hypotonic lysis. The chemoattractants IL-8 (CXCL8) or GRO-α (CXCL1) were placed in the bottom chamber of a 96 multi-well chamber (ChemoTx System, Neuro Probe, Gaithersburg, Md.). The agonist concentration used was an EC80 concentration. The two chambers are separated by a 5 um polycarbonate membrane. When compounds of this invention were tested, they were preincubated with the cells prior to placement on the top of the filter. Chemotaxis was allowed to proceed for 45 minutes in a humidified incubator at 37° C. with 5% CO2. At the end of the incubation period, the membrane was removed and the migrated cells in the bottom chamber were transferred to a 96-well plate. These cells were measured using a luminescent cell viability assay (Celltiter-Glo, Promega, Madison, Wis.). Each sample was tested in duplicate and each compound repeated at least three times. Positive control cells were cells without compound added and represent the maximum chemotactic response. The negative control (unstimulated) was with no chemokine added to the bottom chamber. The difference between the positive control and the negative control represents the chemotactic activity of the cells.

Compound	IC50 [nM]
O=C(Nc1nnc(C2(c3cccc(F)c3)CCC2)s1)c1cc(S(=O)(=O)NCC(F)(F)F)ccc1F [Example 72, 2-fluoro-N-{5-[1-(3-fluorophenyl)-cyclobutyl]-1,3,4-thiadiazol-2-yl}-5-([(2,2,2-trifluoroethyl)amino]-sulfonyl}benzamide]	63 to 8000
NS(=O)(=O)c1ccc(F)c(C(=O)Nc2nnc(-c3ccc(F)cc3)s2)c1 [Example 44, 5-(aminosulfonyl)-2-fluoro-N-[5-(4-fluorophenyl)-1,3,4-thiadiazol-2-yl] benzamide]	63 to 8000
CCNS(=O)(=O)c1ccc(F)c(C(=O)Nc2nnc(C3(c4ccccc4)CCC3)s2)c1 [Example 92, 5-[(ethylamino)sulfonyl]-2-fluoro-N-[5-(1-phenylcyclobutyl)-1,3,4-thiadiazol-2-yl]-benzamide]	63 to 8000
CCNS(=O)(=O)c1cc(F)c(Cl)c(C(=O)Nc2nnc(-c3ccc(F)cc3)s2)c1 [Example 22, 2-chloro-5-[(ethylamino)sulfonyl]-3-fluoro-N-[5-(4-fluorophenyl)-1,3,4-thiadiazol-2-yl]-benzamide]	63 to 8000
CCNS(=O)(=O)c1ccc(F)c(C(=O)Nc2nnc(C3(C)CCCC3)s2)c1 [Example 59, 5-[(ethylamino)sulfonyl]-2-fluoro-N-[5-(1-methylcyclopentyl)-1,3,4-thiadiazol-2-yl]benzamide]	63 to 8000
CC(C)(c1ccccc1)c1nnc(NC(=O)c2cc(S(=O)(=O)NC3CC3)ccc2F)s1 [Example 49, 5-[(cyclopropylamino)sulfonyl]2-fluoro-N-[5-(1-methyl-1-phenylethyl)-1,3,4-thiadiazol-2-yl]benzamide]	63 to 8000
CC(C)(C)c1nnc(NC(=O)c2cc(S(N)(=O)=O)ccc2F)s1 [Example 39, 5-(aminosulfonyl)-N-[5-(1,1-dimethylethyl)-1,3,4-thiadiazol-2-yl]-2-fluorobenzamide]	63 to 8000
CC(C)(c1ccccc1)c1nnc(NC(=O)c2cc(S(N)(=O)=O)cc(Cl)c2Cl)s1 [Example 36, 5-(aminosulfonyl)-2,3-dichloro-N-[5-(1-methyl-1-phenylethyl)-1,3,4-thiadiazol-2-yl]benzamide]	63 to 8000
CCNS(=O)(=O)c1ccc(F)c(C(=O)Nc2nnc(C(C)(C)c3ccccc3F)s2)c1 [Example 63, 5-[(ethylamino)sulfonyl]-2-fluoro-N-{5-[1-(2-fluorophenyl)-1-methylethyl]-1,3,4-thiadiazol-2-yl}-benzamide]	63 to 8000
CCNS(=O)(=O)c1ccc(F)c(C(=O)Nc2nnc(C3(C)CCCCC3)s2)c1 [Example 57, 5-[(cthylamino)sulfonyl]-2-fluoro-N-[5-(1-methylcyclohexyl)-1,3,4-thiadiazol-2-yl] benzamide]	63 to 8000
CCNS(=O)(=O)c1ccc(F)c(C(=O)Nc2nnc(C3CCCC3)s2)c1 [Example 58, N-(5-cyclopentyl-1,3,4-thiadiazol-2-yl)-5-[(ethylamino)sulfonyl]-2-fluorobenzamide]	63 to 8000
CC(C)CNS(=O)(=O)c1ccc(F)c(C(=O)Nc2nnc(-c3ccc(F)cc3)s2)c1 [Example 18, 2-fluoro-N-[5-(4-fluorophenyl)-1,3,4-thiadiazol-2-yl]-5-{[(2-methylpropyl)amino]sulfonyl}benzamide]	63 to 8000
CCNS(=O)(=O)c1cc(F)c(F)c(C(=O)Nc2nnc(C(C)(C)c3ccccc3)s2)c1 [Example 29, 5-[(ethylamino)sulfonyl]-2,3-difluoro-N-[5-(1-methyl-1-phenylethyl)-1,3,4-thiadiazol-2-yl]benzamide]	63 to 8000
CCNS(=O)(=O)c1ccc(F)c(C(=O)Nc2nnc(C(C)(C)c3ccccc3)s2)c1 [Example 1, 5-[(ethylamino)sulfonyl]-2-fluoro-N-[5-(1-methyl-1-phenylethyl)-1,3,4-thiadiazol-2-yl]benzamide]	63 to 8000
CCNS(=O)(=O)c1cc(F)c(F)c(C(=O)Nc2nnc(C(C)(C)C)s2)c1 [Example 27, N-[5-(1,1-dimethylethyl)-1,3,4-thiadiazol-2-yl]-5-[(ethylamino)sulfonyl]-2,3-difluorobcnzamidc]	63 to 8000
CCNS(=O)(=O)c1cc(F)c(F)c(C(=O)Nc2nnc(-c3ccc(F)cc3)s2)c1 [Example 6, 5-[(ethylamino)sulfonyl]-2,3-difluoro-N-[5-(4-fluorophenyl)-1,3,4-thiadiazol-2-yl]benzamide]	63 to 8000
O=C(Nc1nnc(-c2ccc(F)cc2)s1)c1cc(S(=O)(=O)Nc2ccccc2)ccc1F [Example 20, 2-fluoro-N-[5-(4-fluorophenyl)-1,3,4-thiadiazol-2-yl]-5-[(phenylamino)sulfonyl]benzamide]	63 to 8000
O=C(Nc1nnc(C2(c3cccc(F)c3)CCC2)s1)c1cc(S(=O)(=O)NCC2CC2)ccc1F [Example 77, 5-{[(cyclopropylmethyl)amino]sulfonyl}-2-fluoro-N-{5-[1-(3-fluorophenyl)-cyclobutyl]-1,3,4-thiadiazol-2-yl}-benzamide]	63 to 8000
CCNS(=O)(=O)c1ccc(F)c(C(=O)Nc2nnc(C3(c4cccc(F)c4)CCC3)s2)c1 [Example 76, 5-[(ethylamino)sulfonyl]-2-fluoro-N-{5-[1-(3-fluorophenyl)-cyclobutyl]-1,3,4-thiadiazol-2-yl}-benzamide]	63 to 8000
